Measurements: US6670378B2, “Method of treating Parkinson's disease” (Pharmacia & Upjohn Company, priority 2001, dated 2003)

What was measured:
[1] = tested on: 6-OH-dopamine lesioned rats; experiment: L-DOPA induced behavioral sensitization (contralateral rotations) in unilaterally 6-OH-dopamine lesioned rats; assay type: in vivo, Male Sprague-Dawley rats
Procedure: Repeated administration of dopamine agonists to 6-OH-dopamine lesioned rats results in behavioral sensitization or enhanced rotational behavior in the rats. This effect is believed to mirror the development of motor complications including L-DOPA induced involuntary movements such as dyskinesias in Parkinson's Disease patients.
Male Sprague-Dawley rats having lesion surgery were provided. […] The rats were anesthetized with 60 mg/kg i.p. sodium pentobarbital and then placed in a stereotaxic apparatus. A small hole was drilled through the skull of the rats and a 30-gauge stainless tubing was lowered to the right (one study) or left (two studies) medial forebrain bundle. 8 μg/4 μL (8μ free base) of 6-OH-dopamine solution was injected into the medial forebrain bundle at a rate of 1 μL/min. Following surgery, the incision was closed with clips and ointment containing a local anesthetic/antibiotic was applied to the incision area. The rats were returned to their home cages and allowed one week to recover from surgery.
The rats were group housed in wire mesh hanging cages with free access to food and water and kept on 12-hour light:12-hour dark cycles with the light being on from 6:00 a.m. to 6:00 p.m. All behavioral testing was done between 9:00 a.m. to 6:00 p.m.
Two to three weeks after the surgery, the rats were screened to assess the degree of lesion by measuring their net turning response to a single dose of 0.1 mg/kg s.c. of apomorphine HCl in 0.9% saline. The total turns were recorded in discrete 10 minute intervals. Each rat was connected by a lightweight harness and tether to a rotometer comprising a swivel with a mechanical counter at the top of a clear plastic cylindrical cage. The rats were used for the experiments if they had at least 30 contralateral turns in 10 minutes, with contralateral being away from the side of the lesion. In addition to screening out incomplete lesions, the response to apomorphine was used to separate the rats into balanced treatment groups, prior to the start of chronic dosing. The rats were ranked by cumulative net turning response and an equal number of high and low responders were placed in each treatment group.
All of the injections were given in a volume of 2 ml/kg and, with the exception of L-DOPA+benserazide 15+5 mg/kg, i.p., all injections were subcutaneous. All chronic treatment was given bid, 6-8 hours apart. […] S-(−)-3-[3-(methylsulfonyl)phenyl]-1-propyl-piperidine was dissolved in 0.9% sterile saline and administered at either 10 or 30 mg/kg subcutaneously 20 minutes before L-DOPA or together with the L-DOPA. The basal turning measurement started immediately after the rats received the first injections on day 1 with the activity being measured for 4-6 hours after dosing. The turning activity was measured again on days 7 and 14 and compared to the activity on day 1. […] Analysis of variance was used for statistical calculations and probability levels of <0.05 was regarded as being statistically significant.

[2] = Plasma/blood levels of the piperidine derivative and its N-dealkylated metabolite after two weeks of chronic dosing (HPLC-MS/MS); assay type: in vivo, Male Sprague-Dawley rats; conditions: plasma one hour after evening dose
Procedure: In order to perform the brain monoamine neurochemistry analysis, the brains were harvested following 14 days of chronic drug treatment. This was performed by decapitating the rats one hour after the evening drug administration, collecting the trunk blood into EDTA-treated tubes, immediately removing the brains, freezing the brains in small aluminum pans on dry ice and then storing at −80° C. […] Blood was spun and plasma was frozen at −80° C. for analysis of S-(−)-3-[3-(methylsulfonyl) phenyl]-1-propyl-piperidine and its major N-dealkylated metabolite. Plasma concentrations of S-(−)-3-[3-(methylsulfonyl)phenyl]-1-propyl-piperidine and its despropyl metabolite were quantitated using on-line high performance liquid chromatography (HPLC) tandem mass spectroscopy (MS/MS) with an atmospheric pressure chemical ionization (APCI) interface. […] S-(−)-3-[3-(methylsulfonyl)phenyl]-1-propyl-piperidine (0.1 μg/mL, 25 μL) were quantitatively added to 100 μL of plasma sample. […] The linear range of the calibration curve calculated in plasma was 0.02 nmol/mL to 40 nmol/mL for S-(−)-3-[3-(methylsulfonyl) phenyl]-1-propyl-piperidine and 00.01 nmol/mL to 20 nmol/mL for its N-dealkylated metabolite. […] Product ions with m/z 173 were monitored following CID of the protonated stable isotope (m/z 286). […] Study sample concentrations were calculated by reference to this equation.

[3] = tested on: unilaterally dopamine-lesioned monkeys; conditions: cited from earlier work
[4] = Post mortem brain (prefrontal cortex) levels of L-DOPA after 14 days of chronic treatment; conditions: L-DOPA alone vs L-DOPA combined with the piperidine derivative
Procedure: In order to perform the brain monoamine neurochemistry analysis, the brains were harvested following 14 days of chronic drug treatment. This was performed by decapitating the rats one hour after the evening drug administration, collecting the trunk blood into EDTA-treated tubes, immediately removing the brains, freezing the brains in small aluminum pans on dry ice and then storing at −80° C. Brain levels of L-DOPA and dopamine were analyzed by means of liquid chromatography and electrochemical detection according to standard methodology described in the literature.
After two weeks of the administering of the L-DOPA and benserazide, tissues were taken post-mortem from the unilateral striatum and prefrontal cortex and analyzed for monoamines and their metabolite levels.

[5] = tested on: rotational behavior induced by apomorphine, L-DOPA and quinpirole; conditions: in vivo; cited from earlier work

| Structure (SMILES) | rotational behavior in animals with unilateral lesions of the nigro-striatal dopamine neurons ([1]; L-DOPA+benserazide 15+5 mg/kg i.p.) | behavioral sensitization, measured as enhanced number of contralateral rotations ([1]; L-DOPA+benserazide 15+5 mg/kg i.p. bid, two separate experiments) | effect of chronic treatment with L-DOPA on blood levels [2] | L-DOPA-induced contraversive turning behavior [3] | effect of co-treatment on brain levels of L-DOPA [4] | motor impairment such as akinesia or dystonia [5] | rotational behavior induced by apomorphine, L-DOPA and quinpirole [5] | behavioral sensitization induced by L-DOPA (enhanced number of contralateral rotations) ([1]; 10 or 30 mg/kg s.c. bid, 20 minutes before or together with L-DOPA+benserazide 15+5 mg/kg i.p., days 7 and 14 vs day 1) | antagonism of basal rotational response induced by L-DOPA ([1]; 10 or 30 mg/kg s.c. with L-DOPA+benserazide 15+5 mg/kg i.p., both experiments) | rotational behavior or akinesia induced by the compound by itself ([1]; compound alone, s.c.) | time course of antagonism of L-DOPA sensitization (simultaneous vs 20 minutes before L-DOPA) ([1]; given simultaneously with L-DOPA (FIG. 2) vs 20 minutes before (FIG. 1)) |
| --- | --- | --- | --- | --- | --- | --- | --- | --- | --- | --- | --- |
| N[C@@H](Cc1ccc(O)c(O)c1)C(=O)O [L-DOPA, reference compound] | induces rotational behavior | repeatedly exhibited | – | – | – | – | – | – | – | – | – |
| CS(=O)(=O)c1cccc([C@@H]2CCCNC2)c1 [N-dealkylated metabolite] | – | – | did not significantly effect | – | – | – | – | – | – | – | – |
| CCCN1CCC[C@@H](c2cccc(S(C)(=O)=O)c2)C1 [S-(−)-3-[3-(methylsulfonyl)phenyl]-1-propyl-piperidine] | – | – | did not significantly effect | attenuating | did not appear to effect the brain levels of L-DOPA | without inducing motor impairment | attenuated | blocked by both doses | in neither experiment did the piperidine derivative antagonize the basal rotational response | did not induce rotational behavior or akinesia by itself | most optimal antagonism occurred when the piperidine derivative was given simultaneously with L-DOPA |
